Test results published in ChEMBL document CHEMBL4270640, “Discovery of new 2, 5-disubstituted 1,3-selenazoles as selective human carbonic anhydrase IX inhibitors with potent anti-tumor activity” (Eur J Med Chem, 2018).
Calls of active or inactive are those of the source. No cut-off for these calls is given here.

Experiments:
Carbonic anhydrase 9 = Carbonic anhydrase 9 (Homo sapiens, UniProt Q16790); experiment: Inhibition of recombinant human carbonic anhydrase 9 incubated for 15 mins prior to testing by stopped flow CO2 hydration assay
PC-3 [1] = experiment: Antiproliferative activity against human PC3 cells assessed as cell viability at 1 uM after 48 hrs under normoxic condition by MTT assay relative to control; assay type: functional; settings: for viability at 1 µM: PC-3, 48 h, read-out: Activity
MDA-MB-231 [2] = experiment: Antiproliferative activity against human MDA-MB-231 cells assessed as cell viability at 1 uM after 48 hrs under normoxic condition by MTT assay relative to control; assay type: functional; settings: for viability at 1 µM: MDA-MB-231, 48 h, read-out: Activity
PC-3 [3] = experiment: Antiproliferative activity against human PC3 cells assessed as cell viability at 10 uM after 48 hrs under normoxic condition by MTT assay relative to control; assay type: functional
PC-3 [4] = experiment: Antiproliferative activity against human PC3 cells assessed as cell viability at 1 uM after 48 hrs under hypoxic condition by MTT assay relative to control; assay type: functional; settings: PC-3, 48 h, read-out: Activity
MDA-MB-231 [5] = experiment: Antiproliferative activity against human MDA-MB-231 cells assessed as cell killing at 10 uM after 48 hrs under normoxic condition by MTT assay relative to control; assay type: functional
PC-3 [6] = experiment: Antiproliferative activity against human PC3 cells at 10 uM after 48 hrs under hypoxic condition by MTT assay relative to control; assay type: functional
PC-3 [7] = experiment: Antiproliferative activity against human PC3 cells assessed as cell viability at 100 uM after 48 hrs under normoxic condition by MTT assay relative to control; assay type: functional; settings: PC-3, 48 h, read-out: Activity
PC-3 [8] = experiment: Antiproliferative activity against human PC3 cells assessed as cell viability at 30 uM after 48 hrs under normoxic condition by MTT assay relative to control; assay type: functional; settings: PC-3, 48 h, read-out: Activity
MDA-MB-231 [9] = experiment: Antiproliferative activity against human MDA-MB-231 cells assessed as cell killing at 30 to 100 uM after 48 hrs under normoxic condition by MTT assay; assay type: functional, cell-based
MDA-MB-231 [10] = experiment: Antiproliferative activity against human MDA-MB-231 cells assessed as cell viability at 100 uM after 48 hrs under hypoxic condition by MTT assay relative to control; assay type: functional; settings: MDA-MB-231, 48 h, read-out: Activity

| Compound | Ki (Carbonic anhydrase 9) [nM] | other results |
| --- | --- | --- |
| Cc1ccc([Se]Cc2cnc(-c3ccc(S(N)(=O)=O)cc3)[se]2)cc1 | 7.1 |  |
| Cc1cnc(-c2ccc(S(N)(=O)=O)cc2)[se]1 | 6.9 |  |
| COc1ccc([Te]Cc2cnc(-c3ccc(S(N)(=O)=O)cc3)[se]2)cc1 | 0.89 | viability at 1 µM (PC-3 [1]): 23%; viability at 1 µM (MDA-MB-231 [2]): 16% |
| Cc1ccc([Te]Cc2cnc(-c3ccc(S(N)(=O)=O)cc3)[se]2)cc1 | 2.6 |  |
| NS(=O)(=O)c1ccc(-c2ncc(-c3ccc(Br)cc3)[se]2)cc1 | 0.87 |  |
| NS(=O)(=O)c1ccc(-c2ncc(CSc3ccccc3)[se]2)cc1 | 5.4 |  |
| NS(=O)(=O)c1ccc(-c2ncc(-c3ccc(F)cc3)[se]2)cc1 | 7.5 |  |
| NS(=O)(=O)c1ccc(-c2ncc(C[Te]c3ccccc3)[se]2)cc1 | 7.2 |  |
| NS(=O)(=O)c1ccc(-c2ncc(-c3ccccc3)[se]2)cc1 | 6.5 |  |
| NS(=O)(=O)c1ccc(-c2ncc(CCl)[se]2)cc1 | 2.8 |  |
| N=C(N)SCc1cnc(-c2ccc(S(N)(=O)=O)cc2)[se]1 | 7 |  |
| COc1cccc(-c2cnc(-c3ccc(S(N)(=O)=O)cc3)[se]2)c1 | 56.3 |  |
| NC(=[Se])c1ccc(S(N)(=O)=O)cc1 | 7.6 |  |
| NS(=O)(=O)c1ccc(-c2ncc(-c3ccc([N+](=O)[O-])cc3)[se]2)cc1 | 8.2 | viability at 10 µM (PC-3 [3]; PC-3, 48 h, read-out: Activity): 10%; viability at 1 µM (PC-3 [1]): 60%; viability at 1 µM (PC-3 [4]): 32%; viability at 1 µM (MDA-MB-231 [2]): 73%; Activity (MDA-MB-231 [5]): >90% |
| NS(=O)(=O)c1ccc(-c2ncc(C[Se]c3ccccc3)[se]2)cc1 | 9.1 |  |
| COc1ccc([Se]Cc2cnc(-c3ccc(S(N)(=O)=O)cc3)[se]2)cc1 | 0.55 | Activity (PC-3 [3]): inactive; Activity (PC-3 [6]): 77%; viability at 100 µM (PC-3 [7]): 11%; Activity (PC-3 [1]): inactive; Activity (MDA-MB-231 [2]): inactive; Activity (MDA-MB-231 [5]): inactive; viability at 30 µM (PC-3 [8]): 59%; Activity (MDA-MB-231 [9]): Active; viability at 100 µM (MDA-MB-231 [10]): 46% |
| NS(=O)(=O)c1ccc(-c2ncc(C(=O)O)[se]2)cc1 | 9 |  |
| NS(=O)(=O)c1ccc(-c2ncc(-c3ccc(Cl)cc3)[se]2)cc1 | 8.4 |  |
